Assay results reported in paper PMC11397260, “Towards New Delivery Agents for Boron Neutron Capture Therapy: Synthesis and In Vitro Evaluation of a Set of Fluorinated Carbohydrate Derivatives” (Molecules, 2024).
Values belong to the compound of their own block, whether it stands above or below them.

Tests used:
GLUT1 = target: T1, GLUT1 (Homo sapiens, UniProt P11166); test: cis-inhibition assay of [14C]-D-glucose uptake (GLUT1 affinity) in CAL 27 cells; format: cell-based; conditions: incubation time 5 min
T1 construct: host or cells: CAL 27
T1 sequence (P11166 1-492): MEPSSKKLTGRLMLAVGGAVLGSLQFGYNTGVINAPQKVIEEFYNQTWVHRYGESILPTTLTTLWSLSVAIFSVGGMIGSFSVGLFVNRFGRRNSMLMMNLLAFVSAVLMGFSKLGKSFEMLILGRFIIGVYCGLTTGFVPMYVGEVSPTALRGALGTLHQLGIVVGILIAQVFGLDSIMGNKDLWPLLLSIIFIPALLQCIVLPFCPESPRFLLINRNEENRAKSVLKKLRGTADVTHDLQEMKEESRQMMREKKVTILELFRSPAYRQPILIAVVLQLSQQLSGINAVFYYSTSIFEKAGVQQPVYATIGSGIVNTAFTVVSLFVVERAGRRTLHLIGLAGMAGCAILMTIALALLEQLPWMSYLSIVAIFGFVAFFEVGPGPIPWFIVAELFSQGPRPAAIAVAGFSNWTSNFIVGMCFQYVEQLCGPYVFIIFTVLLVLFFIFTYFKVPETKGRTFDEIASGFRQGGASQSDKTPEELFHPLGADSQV
Source text: GLUT affinity: In a strategy targeting the GLUTs, it is important to study whether the monosaccharide delivery agents will be able to compete for the transporters with the high D-glucose levels found in blood. For these purposes, we utilized our previously developed cis-inhibition assay in the CAL 27 cell line. In addition to having accurate protocols for assessment of GLUT-affinity, we have previously studied the GLUT1 expression and verified its function in the CAL 27 cell line. Thus, a strong foundation was available for the current study and we employed an identical protocol herein in the assessment of GLUT affinity, i.e., in assessing to which extent the delivery agents will be able to compete for the GLUTs against the natural substrate D-glucose.
(§1) The CAL 27 (ATCC CRL-2095) cells used in all assays were acquired from ATCC (Manassas, VA, USA) and cultured in Dulbecco’s Modified Eagle Medium (DMEM) supplemented with L-glutamine (2.0 mM), heat-inactivated fetal bovine serum (10%), and penicillin (50 U/mL)-streptomycin (50 μg/mL) at 37 °C with 5% CO2 and 95% relative humidity.
The GLUT1 affinity assay was conducted following our previously established protocol. Stock solutions of the glycoconjugates were prepared in DMSO. From the stock solutions, the samples employed in the study were prepared by diluting the stock solutions in glucose-free HBSS-buffer to reach concentrations of 0.1–1800 μM. The cells were incubated at RT for 5 min with glycoconjugates 1–4, BSH or BPA over the concentration range given above. The glucose-free HBSS buffer as such was used as a blank control. In more detail, the solutions included 1.8 μM ([…]) of [^14C]-D-glucose in 250 μL of glucose-free HBSS (Hanks’ balanced salt solution). Ice-cold buffer was used for quenching. Cell lysis was performed using 0.1 M NaOH (250 μL) and then mixed with an emulsifier safe cocktail (1.0 mL) (PerkinElmer, Waltham, MA, USA). The radioactivity was measured with a liquid scintillation counter (MicroBeta2 counter, PerkinElmer, Waltham, MA, USA), and the IC50 values were calculated through nonlinear regression analysis.

[1] = Plasma protein binding, equilibrium dialysis, mouse plasma; format: in vitro ADME; conditions: 1 μM, results similar in human and mouse
Method: (§2) Through the plasma protein binding assay, we sought to provide a baseline for future assessment of the ADME-properties of FDM derivative 4. In more detail, this assay would let us evaluate to which extent the FDM derivative 4 would remain in an unbound state in the presence of plasma proteins. These studies were performed through the standard equilibrium dialysis protocol at the time points of 0 and 6 h employing a concentration of 1 μM. While the studies were performed in both human and mouse plasma, the results were similar in both cases. Being a relatively lipophilic species, it was unsurprising that the FDM derivative 4 bound in significant amounts to the plasma proteins (~97% bound vs. 3% unbound).
The working solutions of test compounds were prepared in DMSO at the concentrations of 10 mM and the working solution of control compound ketoconazole was prepared in DMSO at the concentration of 200 μM. 3 μL of the working solutions were removed to mix with 597 μL of plasma to achieve a final concentration of 1 μM or 50 μM (0.5% DMSO). The plasma samples were vortexed thoroughly. A total of 50 µL of the spiked plasma sample was transferred to 50 μL of blank buffer, and then either incubated for 6 h (37 °C with 5% CO2) or immediately quenched by the addition of 300 μL of RT quench solution (acetonitrile containing internal standards (IS, 200 nM labetalol, 100 nM tolbutamide and 100 nM ketoprofen) to precipitate protein and the mixture was vortex for 5 min.
The dialysis membranes were soaked in ultrapure water for 60 min to separate strips, then in 20% ethanol for 20 min, and finally in dialysis buffer for 20 min. The dialysis apparatus was assembled according to the manufacturer’s instructions. Each cell was filled with 120 μL of spiked plasma sample and dialyzed against equal volume of dialysis buffer (PBS). The assay was performed in duplicate. The dialysis plate was sealed and incubated in an incubator at 37 °C with 5% CO2 at 100 rpm for 6 h. […]

CAL 27 cells = test: Boron delivery capacity (boron uptake) by ICP-MS; format: cell-based, human; conditions: 10–400 μM, 5 min and 120 min, compared with BPA and BSH and within the series
Method: Boron delivery capacity: A central property of boron delivery agents is their boron delivery capacity. […] Herein, we studied the boron delivery capacity at two time points (5 min, and 120 min) over the concentration range of 10–400 μM (see summary in Figure 4). Our previously employed protocol was utilized in order to be able to compare the results to those obtained earlier. In short, after quenching of the incubation, washing, lysis, and digestion with nitric acid, the boron content could be determined by ICP-MS.
as §1
The boron uptake studies were performed according to our earlier reported protocol. The samples used in the boron uptake studies were prepared as described above for the affinity studies. The cells were preincubated. Glycoconjugates 1–4 at various concentrations (10–400 μM in 250 μL of HBSS) were added, and incubation continued for […] 120 min at RT. […] Milli-Q water (USF Elga Purelab Ultra, Veolia Water Technologies, High Wycombe, UK) was added to bring the sample volume to 10 mL, and the boron content was measured in triplicates using ICP-MS. […]

[2] = Plasma stability, human plasma; format: in vitro ADME; conditions: 50 μM
Method: (§3) These studies provide important insights into the stability and behavior of the delivery agent in a biological setting, which is a key factor at later stages of the development pipeline. The serum stability studies were performed in both human and mouse plasma at a set concentration of 50 μM over a time period of 24 h. Propantheline (5 μM) was utilized as a control substrate for validating the assay. […] In human plasma, the stability profile was distinct. […] While the boron delivery agent 4 does decompose in human plasma over time, the rate at which this occurs is acceptable when taking into account that the recommended guidelines for FDG imaging, thus tumor delivery, is between 55–75 min post administration. Nevertheless, the ortho-carboranylmethyl-substituent is likely to affect the pharmacokinetic properties of the delivery agents and thus comprehensive biodistribution studies will be needed in the future to assess these factors in more detail.
10 mM working solutions of the test compound was prepared in DMSO and a 1 mM working solution of the control compound propantheline was prepared in acetonitrile. 4 µL of working solutions was spiked to 796 µL of pre-incubated plasma to reach a final concentration of 50 µM or 5 µM. The final concentration of solvent was 0.5%. 50 µL aliquots of the spiked plasma were added into new tubes for 1, 4, 8 and 24 h and incubated at 37 °C water bath with shaking at 60 rpm. The assay was performed in duplicate. The reaction was stopped by adding 300 µL of RT quench solution (acetonitrile containing internal standards (IS, 100 nM Alprazolam, 500 nM Labetalol, and 2 µM Ketoprofen)) to the spiked plasma samples at the appointed time points. […] Peak area ratios were determined from extracted ion chromatograms. Percent compounds remaining at each time point were calculated by the following equation:Remaining Percentage t h (%) = Peak Area Ratio t h/Peak Area Ratio 0 h × 100 where Peak Area Ratio t h is the peak area ratio of control and test compound at t h; Peak Area Ratio 0 h is the peak area ratio of control and test compound at zero time point.

[3] = Plasma stability, mouse plasma; format: in vitro ADME; conditions: 50 μM
Method: as §3, with “Nevertheless, the ortho-carboranylmethyl-substituent is likely to affect the pharmacokinetic properties of the delivery agents and thus comprehensive biodistribution studies will be needed in the future to assess these factors in more detail.” left out
10 mM working solutions of the test compound was prepared in DMSO and a 1 mM working solution of the control compound propantheline was prepared in acetonitrile. […] Peak area ratios were determined from extracted ion chromatograms. Percent compounds remaining at each time point were calculated by the following equation:Remaining Percentage t h (%) = Peak Area Ratio t h/Peak Area Ratio 0 h × 100 where Peak Area Ratio t h is the peak area ratio of control and test compound at t h; Peak Area Ratio 0 h is the peak area ratio of control and test compound at zero time point.

[4] = Plasma protein binding, equilibrium dialysis, human plasma; format: in vitro ADME; conditions: 1 μM, results similar in human and mouse
Method: as §2
The working solutions of test compounds were prepared in DMSO at the concentrations of 10 mM and the working solution of control compound ketoconazole was prepared in DMSO at the concentration of 200 μM. 3 μL of the working solutions were removed to mix with 597 μL of plasma to achieve a final concentration of 1 μM or 50 μM (0.5% DMSO). The plasma samples were vortexed thoroughly. […]

IC50 (GLUT1): 57.5 µM
Compound: 2-deoxy-2-fluoro-4-O-carboranylmethyl-D-glucopyranose [Compound 2]

IC50 (GLUT1): > 1000 µM
Compound: OC[C@H]1OC(O)[C@H](O)[C@@H](O)[C@@H]1O (stereo partly shown) [D -Glc, reference compound]

IC50 (GLUT1): 62.6 µM
Compound: 2-deoxy-2-fluoro-6-O-carboranylmethyl-D-mannopyranose [Compound 3]

IC50 (GLUT1): 78.3 µM
Compound: 2-deoxy-2-fluoro-6-O-carboranylmethyl-D-glucopyranose [Compound 1]

remained in the bound state ([1]; 6 h mark): 80–87%
bound to plasma proteins ([1]; equilibrium dialysis): ~ 97%
unbound ([1]; equilibrium dialysis): 3%
stability in human plasma ([2]; 1 h): remained stable
remained intact ([2]; 4 h): 86.7%
remained intact ([2]; 24 h): 39.5%
conjugate remaining intact ([3]; 1 h): 84.7%
conjugate remaining intact ([3]; 24 h): 60%
bound to plasma proteins [4]: ~ 97%
unbound [4]: 3%
IC50 (GLUT1): 59.5 µM
Compound: 2-deoxy-2-fluoro-4-O-carboranylmethyl-D-mannopyranose [Compound 4]
boron delivery capacity (CAL 27 cells): best delivery agent out of the series synthesized
